Measurements taken from patent US4156731A, “Heterocyclic oxime compounds and carbamoyloxime derivatives” (priority 1976, dated 1979).

Key:
[1] = system: two spotted mite (Tetranychus urticae Koch); experiment: Mite Foliage Spray Test; format: in vivo; design: key: A: Excellent control; B: Partial control; C: No control; conditions: 500 ppm foliage spray, six days
Method: (§1) Selected species of the new compounds were evaluated to determine their pesticidal activity against mites and certain insects, including anaphid, a caterpillar, a beetle and a fly.
(§2) Suspensions of the test compounds were prepared by dissolving one gram of compound in 50 milliliters of acetone in which had been dissolved 0.1 gram (10 percent of the weight of compound) of an alkylphenoxy polyethoxyethanol surfactant, as an emulsifying or dispersing agent. The resulting solution was mixed into 150 milliliters of water to give roughly 200 milliliters of a suspension containing the compound in finely divided form. The thus-prepared stock suspension contained 0.5 percent by weight of test compound. The test concentrations in parts per million by weight employed in the tests described hereinbelow were obtained by appropriate dilutions of the stock suspension with water. The test procedures were as follows:
Adults and nymphal stages of the two spotted mite (Tetranychus urticae Koch), reared on Tendergreen bean plants at 80±5 per cent relative humidity, were the test organisms. Infested leaves from a stock culture were placed on the primary leaves of two bean plants six to eight inches in height, growing in a two-and-a-half inch clay pot. 150-200 mites, a sufficient number for testing, transferred from the excised leaves to the fresh plants in a period of twenty four hours. Following the twenty four hour transfer period, the excised leaves were removed from the infested plants. The test compounds were formulated by diluting the stock suspension with water to give a suspension with water to give a suspension containing 500 parts of test compound per million parts of final formulation. The potted plants (one pot per compound) were placed on a revolving turntable and sprayed with 100-110 milliliters of test compound formulation by use of a DeVilbiss spray gun set at 40 psig. air pressure. This application, which lasted for 25 seconds, was sufficient to wet the plants to run-off. As a control, 100-110 milliliters of a water solution containing acetone and emulsifier in the same concentrations as the test compound formulation, but containing no test compound, were also sprayed on infested plants. The sprayed plants were held at 80±5 per cent relative humidity for six days, after which a mortality count of motile forms were made. Microscopic examination for motile forms was made on the leaves of the test plants. Any individual which was capable of locomotion upon prodding, was considered living.
(§3) In these tests the pesticidal activity of the compounds against aphid, mite, Southern Armyworm, Mexican Bean Beetle, and house fly was rated as follows: […]

[2] = system: southern armyworm (Prodenia Eridania, (Cram.)); experiment: Southern Armyworm Leaf Spray Test; format: in vivo; design: key: A: Excellent control; B: Partial control; C: No control; conditions: larvae, 500 ppm leaf spray, three days
Method: as §1, §2
Southern Armyworm Leaf Spray Test
Larvae of the southern armyworm (Prodenia Eridania, (Cram.), reared on Tendergreen bean plants at a temperature of 80°±5° F. and a relative humidity of 50±5 per cent, constituted the test insects.
The test compounds were formulated by diluting the stock suspension with water to give a suspension containing 500 parts of test compound per million parts of final formulation. Potted Tendergreen bean plants of standard height and age were placed on a revolving turntable and sprayed with […] of test compound formulation by use of a DeVilbiss spray gun set at 10 psig. air pressure.
This application, which lasted 25 seconds, was sufficient to wet plants to run-off. As a control, 100-110 milliliters of a water-acetone-emulsifier solution containing no test compound were also sprayed on infested plants. When dry, the paired leaves were separated and each one was placed in a 9 centimeter Petric dish lined with moistened filter paper. Five randomly selected larvae were introduced into each dish and the dishes were closed. The closed dishes were labeled and held at 80°-85° F. for three days. Although the larvae could easily consume the whole leaf within twenty-four hours, no more food was added. Larvae which were unable to move the length of the body, even upon stimulation by prodding, were considered dead. Per cent mortality was recorded for various concentration levels.
as §3

[3] = system: Mexican bean beetle (Epilachna varivestis, Muls.); experiment: Mexican Bean Beetle Leaf Spray Test; format: in vivo; design: key: A: Excellent control; B: Partial control; C: No control; conditions: fourth instar larvae, 500 ppm leaf spray, three days
Method: as §1, §2
Mexican Bean Beetle Leaf Spray Test
Fourth instar larvae of the Mexican bean beetle (Epilachna varivestis, Muls.), reared on Tendergreen bean plants at a temperature of 80°±5° F. and 50±5 per cent relative humidity, were the test insects.
The test compounds were formulated by diluting the stock suspension with water to give a suspension containing 500 parts of test compound per million parts of final formulation. Potted Tendergreen bean plants of standard height and age were placed on a revolving turntable and sprayed with 100-110 milliliters of test compound formulation by use of DeVilbiss spray gun set at 10 psig air pressure. This application, which lasted 25 seconds, was sufficient to wet plants to run-off. As a control, 100-110 milliliters of a water-acetone-emulsifier solution containing no test compound were also sprayed on infested plants. When dry, the paired leaves were separated and each was placed in a 9 centimeter Petri dish lined with moistened filter paper. Five randomly selected larvae were introduced into each dish, and the dishes were closed. The closed dishes were labeled and held at a temperature of […]. for three days. Although the larvae could easily consume the leaf within 24 to 48 hours, no more food was added. Larvae which were unable to move the length of the body, even upon stimulation, were considered dead.
as §3

[4] = Peroral toxicity to mammals (rat); conditions: in vivo, po, mortality rate of 50 percent, read-out: A. O. Rat LD50
Method: Certain of these compositions were also evaluated to determine their peroral toxicity to mammals. The animal selected for this experiment was the rat.

[5] = system: bean aphid (Aphis fabae Scop.); experiment: Bean Aphid Foliage Spray Test; format: in vivo; design: key: A: Excellent control; B: Partial control; C: No control; conditions: 500 ppm foliage spray, 24 hour holding period
Method: as §1, §2
Bean Aphid Foliage Spray Test
Adults and nymphal stages of the bean aphid (Aphis fabae Scop.) reared on potted dwarf nasturtium plants at 65°-70° F. and 50-70 per cent relative humidity, constituted the test insects. For testing purposes, the number of aphids per pot was standardized to 100-150 by trimming plants containing excess aphids.
The test compounds were formulated by diluting the stock suspension with water to give a suspension containing 500 parts of test compound per million parts of final formulation.
The potted plants (one pot per compound tested) infested with 100-150 aphids, were placed on a revolving turntable and sprayed with 100-110 milliliters of test compound formulation by use of a DeVilbiss spray gun set at 40 psig. air pressure. This application, which lasted 25 seconds, was sufficient to wet the plants to run-off. As a control, 100-110 milliliters of a water-acetone-emulsifier solution containing no test compound were also sprayed on infested plants. After spraying, the pots were placed on their sides on a sheet of white standard mimeograph paper which had been previously ruled to facilitate counting. Temperature and humidity in the test room during the 24 hour holding period were 65°-70° F. and 50-70 per cent, respectively. Aphids which fell into the paper and were unable to remain standing after being uprighted were considered dead. Aphids remaining on the plants wre observed closely for movement and those which were unable to move the length of the body upon stimulator by prodding were considered dead. Per cent mortality was recorded for various concentration levels.
as §3

[6] = system: house flies (Musca domestica, L.); experiment: Fly Bait Test; format: in vivo; design: key: A: Excellent control; B: Partial control; C: No control; conditions: adults, 500 ppm in sugar bait, twenty four hours
Method: as §1, §2
Four to six day old adult house flies (Musca domestica, L.) reared according to the specifications of the Chemical Specialities Manufacturing Association (Blue Book, McNair-Dorland Co., NY., 1954; pages 234-244, 261) under controlled conditions of 80°±5° F. and 50±5 per cent relative humidity, were the test insects. The flies were immobilized by anesthetizing with carbon dioxide and twenty five immobilized individuals, males and females, were transferred to a cage consisting of a standard food stainer about five inches in diameter which was inverted over a wrapping-paper-covered surface. The test compounds were formulated by diluting the stock suspension with a 10 per cent (by weight) sugar solution to give a suspension containing 500 parts of test compound per million parts of final formulation, by weight. Ten milliliters of the test formulation were added to a souffle cup containing a one inch square of an absorbent cotton pad. This bait cup was introduced and centered on the blotting paper under the food strainer prior to admitting the anesthetized flies. The caged flies were allowed to feed on the bait for twenty four hours, at a temperature of 80°±5° F. and the relative humidity of 50±5 per cent.
as §3

Structure (SMILES)	Mite pesticidal activity rating [1]	Southern Armyworm pesticidal activity rating [2]	Mexican Bean Beetle pesticidal activity rating [3]	LD50 [4] [mg/kg]	Bean Aphid pesticidal activity rating [5]	House-Fly pesticidal activity rating [6]
CNC(=O)ON=C1SC(=NC(C)(C)C)SC1(C)C [L]	A	B	A	31.5	A	A
CC(C)N=C1SC(=NOC(=O)N(C)SN(C)C(=O)ON=C2SC(=NC(C)C)SC2(C)C)C(C)(C)S1 [XLIV, N,N'-Bis-[[5,5-Dimethyl-2-isopropylimino-4-[O-(N-methylcarbamoyl)oximino]-1,3-dithiolane]] sulfide]	C	C	A	113	B	B
CC(C)N=C1SC(=NOC(=O)N(C)SC(Cl)(Cl)Cl)C(C)(C)S1 [XLVIII]	A	C	A	226	A	A
CNC(=O)ON=C1SC(=NC(C)C)SC1(C)C [XLVII]	A	C	A	8.9	A	A
CCN=C1SC(=NOC(=O)NC)C(C)(C)S1 [XLVI]	C	B	A	6.3	A	A
